Test results from patent US10774080B2, “Pyrimidine compound as JAK kinase inhibitor” (THERAVANCE BIOPHARMA R&D IP, LLC, priority 2017, dated 2020).

Legend:
[1] = test system: IL-2 stimulated STAT5 phosphorylation in Tall-1 human T cell line; assay: Assay 11: inhibition of IL-2 stimulated pSTAT5 in Tall-1 T cells; type: cell-based; conditions: read-out: pIC50 for inhibition of IL-2 induced STAT5 phosphorylation (converted)
Experimental: Assay 11: Inhibition of IL-2 Stimulated pSTAT5 in Tall-1 T Cells
The potency of test compounds for inhibition of interleukin-2 (IL-2) stimulated STAT5 phosphorylation was measured in the Tall-1 human T cell line (DSMZ) using AlphaLisa. Because IL-2 signals through JAK1/3, this assay provides a measure of JAK1/3 cellular potency.
Phosphorylated STAT5 was measured via the AlphaLISA SureFire Ultra pSTAT5 (Tyr694/699) kit (PerkinElmer).
Human T cells from the Tall-1 cell line were cultured in a 37° C., 5% CO2 humidified incubator in RPMI (Life Technologies) supplemented with 15% Heat Inactivated Fetal Bovine Serum (FBS, Life Technologies), 2 mM Glutamax (Life Technologies), 25 mM HEPES (Life Technologies) and 1× Pen/Strep (Life Technologies). […] Phosphorylated STAT5 was measured via the pSTAT5 AlphaLisa kit (PerkinElmer). […] Luminescence was measured with excitation at 689 nm and emission at […] using an EnVision plate reader (PerkinElmer) under green filtered <100 lux light.
To determine the inhibitory potency of test compounds in response to IL-2, the average emission intensity of beads bound to pSTAT5 was measured in a human T cell line. IC50 values were determined from analysis of the inhibition curves of signal intensity versus compound concentration. Data are expressed as pIC50 (negative decadic logarithm IC50) values (mean±standard deviation).

[2] = Assay 9: skin tissue concentration in mice; type: in vivo; conditions: Balb/c, mouse, topical ointment 25 μl/cm^2, biopsy one hour after IL-31
From the text: The JAK/STAT (janus kinase/signal transducer and activator of transcription) signaling pathway is a key element in the communication between immune cells and is mainly activated through cytokine receptors. Binding of cytokine IL-31 leads to the activation and phosphorylation of JAK1/JAK2 tyrosine kinases which in turn leads to the phosphorylation of STAT3 (pSTAT3). The activated STAT then translocates into the nucleus and directly regulates the transcription of cytokine-sensitive genes. In these studies, Balb/c mice were dosed with an ointment formulation of compound (I). Ointment vehicle (Table 9) or compound (I) formulated in the ointment vehicle was applied topically to shaved skin (25 μl/cm^2) 30 minutes before the intradermal injection (50 μl/1×1 cm2 site) of IL-31 (1 μg/ml) at a 1×1 cm^2 shaved area of skin on the back between the ears. One hour after IL-31, skin biopsies were collected. The tissue samples were flash frozen and analyzed for pSTAT3 by ELISA and compound concentration. Compound (I) inhibited pSTAT3 production by 80% and the skin tissue concentration of compound (I) was 62 μM.

[3] = test system: TSLP-induced TARC release from PBMCs; assay: Assay 4: TSLP-induced TARC assay in human PBMC; type: cell-based; conditions: 10 ng/mL TSLP, 48 hours, read-out: pIC50 for inhibition of TSLP induced TARC (converted)
From the text: Assay 4: In Vitro TSLP-Induced TARC Assay in Human PBMC
The binding of TSLP to its receptor induces a conformational change that activates JAK1 and JAK2 to phosphorylate various transcription factors including STAT3 and STAT5. In skin-resident immune cells, this triggers a cascade of intracellular events that result in cell proliferation, anti-apoptosis, dendritic cell migration, and production of Th2 cytokines and chemokines. During the acute phase of atopic dermatitis, the skin is invaded by Th2 lymphocytes. In primary peripheral blood mononuclear cells (PBMCs), TSLP has a pro-inflammatory effect by activating myeloid dendritic cells to attract and stimulate T cells. This process is mediated by thymus and activation-regulated chemokine (TARC/CCL17). […]
In this assay, it was shown that TSLP stimulation induces TARC release from PBMCs, and that this response is attenuated in a dose-dependent manner upon treatment with compound (I). […] After 48 hours, the cell supernatants were collected, and TARC was measured using Human CCL17/TARC Quantikine ELISA Kit.
For dose-response analysis, percent inhibition data were plotted vs. compound concentrations, and IC50 values were determined from a 4-parameter robust fit model with the GraphPad Prism software. Results may also be expressed as the negative logarithm of the IC50 value, pIC50.

In the case of `CCS(=O)(=O)N1[C@@H]2CCC[C@H]1C[C@H](N(C)c1nc(CO)c(F)c(Nc3cc(C)[nH]n3)n1)C2` [Compound (I), (2-(((1R,3s,5S)-9-(ethylsulfonyl)-9-azabicyclo[3.3.1]nonan-3-yl)(methyl)amino)-5-fluoro-6-((5-methyl-1H-pyrazol-3-yl)amino)pyrimidin-4-yl)methanol], the IC50 [1] is reported as 3.98 nM, the concentration at 1.5 h [2] is reported as 62 µM and the IC50 [3] is reported as 15.8 nM.
